Patent US20250188079A1, “INHIBITING CYCLIC AMP-RESPONSIVE ELEMENT-BINDING PROTEIN (CREB)” (Forma Therapeutics, Inc., priority 2019, published 2025)

The compounds below were run against CBP (Homo sapiens (Human), UniProt Q92793) (assay: HTRF biochemical assay for CBP activity (TR-FRET, bromodomain)). Conditions: geometric mean, 10-point 3-fold dilution 33 μM to 1.7 nM, read-out: BROMO IC50 TRF TB CBP (μM gmean).
Format: binding
In short: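 IC50 derives from a 4-parameter logistic fit of % inhibition, calculated from the 520/490 nm TR-FRET ratio against DMSO and no-enzyme controls. Final compound levels spanned 33 μM to 1.7 nM (10 points, 3-fold), with CBP and peptide ligand in Hepes pH 7.5/GSH/BGG/BSA/Triton buffer, incubated at room temperature for varying times.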

Sequence of CBP (Q92793 1085-1192): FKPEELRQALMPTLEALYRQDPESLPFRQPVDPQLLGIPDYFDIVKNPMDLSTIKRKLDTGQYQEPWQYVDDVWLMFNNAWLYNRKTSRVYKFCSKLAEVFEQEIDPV

Row | Compound | IC50 [µM]
1 | COC(=O)N1CCc2ccc3c(nc(-c4ccccn4)n3[C@H](C)Cc3ccccc3)c2C1 [Compound 304] | 0.1 to 1
2 | COC(=O)N1CCc2ccc3c(nc(C4CCCCC4)n3C[C@H]3CC[C@@H](C(=O)O)CC3)c2C1 [Compound 221] | 0.01 to 0.1
3 | COC(=O)N1CCc2ccc3c(nc([C@H]4CC[C@H](C(=O)O)CC4)n3[C@H](C)Cc3cc(F)cc(F)c3)c2C1 [Compound 253] | 0.01 to 0.1
4 | COC(=O)N1CCc2ccc3c(nc(-c4cccc(CC(=O)O)c4)n3[C@@H](C)Cc3cc(F)cc(F)c3)c2C1 [Compound 116] | 0.001 to 0.01
5 | COC(=O)N1CCc2ccc3c(nc(C4CCCCC4)n3CCc3cccc(C(=O)O)c3)c2C1 [Compound 105] | 0.001 to 0.01
6 | COC(=O)N1CCc2ccc3c(nc(C4CCN(C(C)=O)CC4)n3[C@H](C)Cc3cccnc3)c2C1 [Compound 346] | 0.1 to 1
7 | COC(=O)N1CCc2ccc3c(nc(C4CCCCC4)n3C[C@@H](CC(=O)O)c3ccccc3C)c2C1 [Compound 98] | 0.001 to 0.01
8 | COC(=O)N1CCc2c([C@H]3CCOC3)cc3c(nc([C@H]4CC[C@H](C(=O)O)CC4)n3CCc3ccccc3)c2C1 [Compound 136] | 0.001 to 0.01
9 | COC(=O)N1CCc2ccc3c(nc(C4CCCCC4)n3C[C@@H](O)c3cccc(C(=O)O)c3)c2C1 [Compound 199] | 0.01 to 0.1
10 | COC(=O)N1CCc2ccc3c(nc([C@H]4CC[C@H](C(=O)O)CC4)n3[C@@H](C)Cc3ccncc3)c2C1 [Compound 216] | 0.01 to 0.1
11 | COC(=O)N1CCc2ccc3c(nc(N4CCC[C@@H](C(=O)O)C4)n3C[C@@H](C)c3ccccc3)c2C1 [Compound 165] | 0.001 to 0.01
12 | COC(=O)N1CCc2ccc3c(nc(C4CCCCC4)n3[C@H](C)C[C@H]3CCCC[C@@H]3C(=O)O)c2C1 [Compound 112] | 0.001 to 0.01
13 | COC(=O)N1CCc2ccc3c(nc([C@H]4CC[C@@](C)(C(=O)O)CC4)n3[C@@H](C)Cc3ccccc3)c2C1 [Compound 49] | 0.001 to 0.01
14 | COC(=O)N1CCc2ccc3c(nc(C4CCCCC4)n3C[C@@H](C(=O)O)c3ccc(F)c(OC)c3)c2C1 [Compound 190] | 0.01 to 0.1
15 | COC(=O)N1CCc2ccc3c(nc(N4CCNCC4)n3[C@@H](C)Cc3ccccc3)c2C1 [Compound 198] | 0.01 to 0.1
16 | COC(=O)N1CCc2ccc3c(nc(C4CCCCC4)n3C[C@H](CC(=O)O)c3ccc(F)c(F)c3)c2C1 (single isomer, unassigned) [Compound 189] | 0.01 to 0.1
17 | COC(=O)N1CCc2cc(CC#N)c3c(nc([C@H]4CC[C@H](C(=O)O)CC4)n3CCc3ccccc3)c2C1 [Compound 118] | 0.001 to 0.01
18 | COC(=O)N1CCc2ccc3c(nc([C@H]4CC[C@](C)(C(=O)O)CC4)n3[C@@H](C)Cc3ccccc3)c2C1 [Compound 224] | 0.01 to 0.1
19 | COC(=O)N1CCc2ccc3c(nc(C45CC(C(=O)O)(C4)C5)n3[C@@H](C)Cc3ccccc3)c2C1 [Compound 119] | 0.001 to 0.01
20 | COC(=O)N1CCc2ccc3c(nc([C@H]4CC[C@H](C(=O)O)CC4)n3[C@@H](C)Cc3ccccn3)c2C1 [Compound 141] | 0.001 to 0.01
21 | COC(=O)N1CCc2ccc3c(nc(C4CCCCC4)n3C[C@H](C(=O)O)c3cccc(F)c3F)c2C1 [Compound 104] | 0.001 to 0.01

Row | Compound | IC50 [µM]
22 | COC(=O)N1CCc2ccc3c(nc([C@@H]4CCC[C@@H](C(=O)O)C4)n3Cc3cncc(Cl)n3)c2C1 [Compound 293] | 0.1 to 1
23 | COC(=O)N1CCc2ccc3c(nc(C4CCCCC4)n3C[C@H](C(=O)O)c3cc(F)c(C)cc3OC)c2C1 (single isomer, unassigned) [Compound 27] | 0.001 to 0.01
24 | COC(=O)N1CCc2ccc3c(nc(C4CCN(S(C)(=O)=O)CC4)n3[C@H](C)Cc3cccc(C(=O)O)c3)c2C1 [Compound 331] | 0.1 to 1
25 | COC(=O)N1CCc2ccc3c(nc(C4CCCCC4)n3C[C@H]3CC[C@H](C(=O)O)CC3)c2C1 [Compound 83] | 0.001 to 0.01
26 | COC(=O)N1CCc2ccc3c(nc([C@@H]4CCC[C@@H](C(=O)O)C4)n3[C@@H](C)Cc3ccccc3C)c2C1 (single isomer, unassigned) [Compound 17] | 0.001 to 0.01
27 | COC(=O)N1CCc2ccc3c(nc([C@H]4CCC[C@H](C(=O)O)C4)n3[C@H](C)Cc3ccccc3C)c2C1 (single isomer, unassigned) [Compound 163] | 0.001 to 0.01
28 | COC(=O)N1CCc2ccc3c(nc([C@H]4CC[C@H](C(=O)O)CC4)n3C[C@H](OC)c3ccccc3)c2C1 [Compound 191] | 0.01 to 0.1
29 | COC(=O)N1CCc2ccc3c(nc(C4CCC(C(=O)O)CC4)n3CCc3ccccc3)c2C1 (stereo not shown) [Compound 84] | 0.001 to 0.01
30 | COC(=O)N1CCc2ccc3c(nc([C@H]4CC[C@H](C(=O)O)CC4)n3[C@@H](C)C[C@H]3CC[C@H](OC)CC3)c2C1 [Compound 202] | 0.01 to 0.1
31 | COC(=O)N1CCc2ccc3c(nc([C@H]4CCC[C@H](C(=O)O)C4)n3C(C)Cc3ccccc3Cl)c2C1 (stereo in doubt) [Compound 19, (1S,3S)-3-{3-[(2R)-1-(2-chlorophenyl)propan-2-yl]-8-(methoxycarbonyl)-3H,6H,7H,8H,9H-imidazo[4,5-h]isoquinolin-2-yl}cyclohexane-1-carboxylic acid] | 0.001 to 0.01
32 | COC(=O)N1CCc2ccc3c(nc(N4CCC(C(=O)O)CC4)n3[C@H](C)Cc3cc(F)cc(OC)c3)c2C1 (single isomer, unassigned) [Compound 16] | 0.001 to 0.01
33 | COC(=O)N1CCc2ccc3c(nc(C4CCCCC4)n3C[C@@H](C(=O)O)c3cc(F)ccc3OC)c2C1 (single isomer, unassigned) [Compound 11] | 0.001 to 0.01
34 | COC(=O)N1CCc2ccc3c(nc([C@H]4CC[C@H](C(=O)O)CC4)n3[C@@H](C)Cc3cccc(C)c3)c2C1 [Compound 100] | 0.001 to 0.01
35 | COC(=O)N1CCc2ccc3c(nc(N4CCC[C@@H](C(=O)O)C4)n3[C@@H](C)Cc3ccccc3)c2C1 [Compound 82] | 0.001 to 0.01
36 | COC(=O)N1CCc2ccc3c(nc(C4CCCCC4)n3[C@@H](C)C[C@H]3CCCC[C@H]3C(=O)O)c2C1 [Compound 204] | 0.01 to 0.1
37 | COC(=O)N1CCc2ccc3c(nc([C@H]4CC[C@@H](S(N)(=O)=O)CC4)n3[C@H](C)Cc3ccccc3)c2C1 [Compound 310] | 0.1 to 1
38 | COC(=O)N1CCc2ccc3c(nc(C4CCCCC4)n3C[C@](C)(C(=O)O)c3ccccc3)c2C1 [Compound 135] | 0.001 to 0.01
39 | COC(=O)N1CCc2ccc3c(nc(C4CCN(C(C)=O)CC4)n3[C@@H](C)Cc3cccnc3)c2C1 [Compound 207] | 0.01 to 0.1
40 | COC(=O)N1CCc2c([C@@H]3CCOC3)cc3c(nc([C@H]4CC[C@H](C(=O)O)CC4)n3CCc3ccccc3)c2C1 [Compound 90] | 0.001 to 0.01
41 | COC(=O)N1CCc2ccc3c(nc([C@@H]4CCC[C@@H](C(=O)O)C4)n3C[C@H]3CC[C@@H](OC)CC3)c2C1 [Compound 259] | 0.01 to 0.1
42 | COC(=O)N1CCc2ccc3c(nc(C4CCCCC4)n3C[C@H](CC(=O)O)c3ccccc3)c2C1 [Compound 167] | 0.001 to 0.01

Row | Compound | IC50 [µM]
43 | COC(=O)N1CCc2ccc3c(nc(N4CCN(S(C)(=O)=O)CC4)n3[C@@H](C)Cc3ccccc3)c2C1 [Compound 80] | 0.001 to 0.01
44 | COC(=O)N1CCc2ccc3c(nc([C@H]4CC[C@H](C(=O)O)CC4)n3[C@H](C)Cc3ccccc3F)c2C1 [Compound 51] | 0.001 to 0.01
45 | COC(=O)N1CCc2ccc3c(nc([C@H]4CC[C@H](C(=O)O)CC4)n3[C@@H](C)Cc3c(F)cccc3F)c2C1 [Compound 289] | 0.01 to 0.1
46 | COC(=O)N1CCc2ccc3c(nc(C4CCCCC4)n3CCc3ccccc3C(=O)O)c2C1 [Compound 137] | 0.001 to 0.01
47 | COC(=O)N1CCc2ccc3c(nc(N4CCC(C(=O)O)CC4)n3[C@@H](C)Cc3ccccc3C)c2C1 [Compound 63] | 0.001 to 0.01
48 | COC(=O)N1CCc2ccc3c(nc([C@H]4CC[C@H](C(=O)O)CC4)n3[C@H](C)Cc3ccccc3Cl)c2C1 [Compound 297] | 0.1 to 1
49 | COC(=O)N1CCc2ccc3c(nc(N4CCC(C(=O)CO)CC4)n3[C@H](C)Cc3ccccc3)c2C1 [Compound 313] | 0.1 to 1
50 | COC(=O)N1CCc2ccc3c(nc(C4CCCCC4)n3C[C@@H](C(=O)NS(C)(=O)=O)c3ccccc3)c2C1 (single isomer, unassigned) [Compound 138] | 0.001 to 0.01
51 | COC(=O)N1CCc2ccc3c(nc(N4CCCCC4)n3[C@H](C)Cc3cccc(C(=O)O)c3)c2C1 (single isomer, unassigned) [Compound 33] | 0.001 to 0.01
52 | COC(=O)N1CCc2ccc3c(nc(C4CCCCC4)n3CC[C@H]3CCCC[C@@H]3C(=O)O)c2C1 [Compound 252] | 0.01 to 0.1
53 | COC(=O)N1CCc2ccc3c(nc(C4CCCCC4)n3C[C@@H](CC(=O)O)c3ccc(F)c(F)c3)c2C1 [Compound 21] | 0.001 to 0.01
54 | COC(=O)N1CCc2ccc3c(nc(N4CCC(C(=O)O)CC4)n3[C@H](C)Cc3ccc(F)c(F)c3)c2C1 (single isomer, unassigned) [Compound 307] | 0.1 to 1
55 | COC(=O)N1CCc2ccc3c(nc([C@H]4CC[C@H](C(=O)NS(C)(=O)=O)CC4)n3[C@@H](C)Cc3ccccc3)c2C1 (single isomer, unassigned) [Compound 15] | 0.001 to 0.01
56 | COC(=O)N1CCc2ccc3c(nc([C@H]4CC[C@H](C(=O)O)CC4)n3[C@@H](C)C[C@@H]3CCCOC3)c2C1 [Compound 183] | 0.01 to 0.1
57 | COC(=O)N1CCc2ccc3c(nc(C4CCCCC4)n3CC[C@H]3CCC[C@H](C(=O)O)C3)c2C1 [Compound 172] | 0.001 to 0.01
58 | COC(=O)N1Cc2c(ccc3c2nc(C2CCCCC2)n3CCc2ccccc2)C[C@H]1C [Compound 232] | 0.01 to 0.1
59 | COC(=O)N1CCc2ccc3c(nc(C4CCCCC4)n3[C@H](C)C[C@@H]3CCCC[C@@H]3C(=O)O)c2C1 [Compound 91] | 0.001 to 0.01
60 | COC(=O)N1CCc2ccc3c(nc(C4CCN(S(=O)(=O)NC(C)=O)CC4)n3[C@@H](C)Cc3ccccc3)c2C1 [Compound 178] | 0.01 to 0.1
61 | COC(=O)N1CCc2ccc3c(nc(C4CCCC4)n3C[C@H](CC(=O)O)c3ccccc3)c2C1 (single isomer, unassigned) [Compound 174] | 0.01 to 0.1
